# Measured values reported in PubChem BioAssay (NCI).
#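 Compound exposure: 48 hours, 5 concentrations, 96-well plates. GI50 is the concentration that inhibits growth by half. TGI: concentration producing complete growth inhibition.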
# Tests used:
# Test in all cases: DTP human tumour cell line panel, 48 h
# NCI/ADR-RES ovarian = tested on: NCI/ADR-RES ovarian
# HOP-18 NSCLC = tested on: HOP-18 NSCLC
# LXFL 529 NSCLC = tested on: LXFL 529 NSCLC
# RXF-631 renal = tested on: RXF-631 renal
# XF 498 CNS = tested on: XF 498 CNS
# SNB-78 CNS = tested on: SNB-78 CNS
# MDA-N = tested on: MDA-N
SMILES,GI50 (NCI/ADR-RES ovarian) [µM],TGI (NCI/ADR-RES ovarian) [µM],TGI (HOP-18 NSCLC) [µM],TGI (LXFL 529 NSCLC) [µM],TGI (SNB-78 CNS) [µM],also measured
NC(=O)Oc1cc(OC(N)=O)cc(N(CCCl)CCCl)c1,5.45,> 100,–,–,–,–
Cc1ccc(C(=O)NC2CCCCC2)cc1-c1ccc(C(=O)NCC2CC2)cc1,24.6,> 25,–,–,–,–
C=CCN(N=O)C(=O)N(CCC)CCCCC(NC(C)=O)C(=O)NCc1ccccc1 (stereo not given),–,–,> 100,> 100,–,TGI (RXF-631 renal): > 100 µM; TGI (XF 498 CNS): > 100 µM
Cn1cnc2c(NCc3ccccc3)nc(NCCO)nc21,–,319,–,–,–,–
CCOC(=O)C1=C(C)N(NC(=O)c2ccccc2)C2(O)CCCC12C(=O)OCC (stereo not given),–,–,–,> 100,–,TGI (RXF-631 renal): > 100 µM; TGI (XF 498 CNS): > 100 µM
CCOC(=O)/C=C1\Nc2ccccc2-n2nnnc21,–,–,> 100,> 100,> 100,–
CCOC(=O)c1c(Cl)c2c(n1Cc1cc(OC)cc(OC)c1)-c1oncc1CCC2,0.227,> 61.6,–,–,–,–
COc1ccc2c(c1)[n+]([O-])c(-c1nc3ccccc3s1)c(N)[n+]2[O-],–,–,> 100,> 100,> 100,TGI (RXF-631 renal): > 100 µM
Cc1ccc(S(=O)(=O)N/N=C(\C(=O)Nc2cccc([N+](=O)[O-])c2)c2nc3ccc([N+](=O)[O-])cc3[nH]c2=O)cc1,–,–,–,> 100,> 100,–
CN(CCC(=O)O)S(=O)(=O)c1ccccc1,–,> 100,–,–,–,TGI (MDA-N): > 100 µM
Cn1c2cccc3nnc4cccc(c4c32)n1C,–,–,–,> 100,> 100,TGI (RXF-631 renal): > 100 µM; TGI (XF 498 CNS): > 100 µM
Cc1c(CCl)c(=O)oc2c(C)c3occ(CCl)c(=O)c3cc12,–,–,32,30.2,–,TGI (RXF-631 renal): 31.1 µM
O=C(CC1(O)C(=O)Nc2c(Cl)cc(Cl)cc21)c1ccc2ccccc2c1 (stereo not given),–,–,26.1,21.3,36.5,TGI (RXF-631 renal): 20.6 µM; TGI (XF 498 CNS): 25.2 µM
CN1CCN(Cc2ccc(Nc3ncc(Cl)c(Nc4ccccc4S(=O)(=O)N(C)C)n3)cc2)CC1,0.0747,1.24,–,–,–,–
CCN(CC)CCOc1cc2c(C(=O)OC)c(C)oc2cc1C(C)=O,13.6,26.6,–,–,–,–
CCN(CC)c1ccc2c(c1)N=C1N=CC=CN1C2(c1ccc(N(C)C)cc1)c1ccc(N(C)C)cc1,–,–,12,12.3,39.5,TGI (RXF-631 renal): 19.4 µM; TGI (XF 498 CNS): 12.6 µM
Clc1ccc2nc(CCSCCc3nc4ccc(Cl)cc4[nH]3)[nH]c2c1,–,–,37,19,–,TGI (RXF-631 renal): 21.6 µM; TGI (XF 498 CNS): 27.5 µM
COc1cnc2c(c1)C(=O)c1c-2n(CCCN2CCN(C)CC2)c(=O)c2cc(Cl)ccc12,0.979,24.5,–,–,–,–
O=C(O)/C(Cl)=C(\Cl)C(=O)Nc1ccccc1,–,–,> 100,> 100,> 100,TGI (RXF-631 renal): > 100 µM

SMILES,GI50 (NCI/ADR-RES ovarian) [µM],TGI (NCI/ADR-RES ovarian) [µM],TGI (HOP-18 NSCLC) [µM],TGI (LXFL 529 NSCLC) [µM],TGI (SNB-78 CNS) [µM],also measured
O=C(Cn1ccnc1[N+](=O)[O-])NCC(F)(F)C(F)(F)F,> 100,> 100,–,–,–,–
CCOC(=O)c1cc2ncccc2c2ccccc12,–,> 100,–,–,–,TGI (MDA-N): > 100 µM
COc1ccc(Nc2ccnc(NCCCNc3ccnc4cc(Cl)ccc34)n2)cc1,2.78,10.4,–,–,–,–
Nc1nccc(Nc2ccc(S(N)(=O)=O)cc2)n1,–,> 100,–,–,–,TGI (MDA-N): > 100 µM
COc1ccc(F)cc1C(=O)c1cnc(NC2CCN(S(C)(=O)=O)CC2)nc1N,6.26,> 25,–,–,–,–
C=C[C@]1(C)C=C2C(=O)[C@@]3(O)OC(=O)[C@@]4(CCCC(C)(C)[C@H]34)[C@@]2(O)CC1,2.89,> 100,–,–,–,–
CC12CC3CC(C)(C1)CC(N=[N+]=[N-])(C3)C2,–,–,> 100,> 100,> 100,TGI (XF 498 CNS): > 100 µM
Cc1cc(C)nc(SC2=C(Nc3cccc(Cl)c3)C(=O)N(Cc3ccccc3)C2=O)n1,> 170,> 170,–,–,–,–
CN1CCN(Cc2ccc(NC(=O)c3cncc(C#Cc4c(N)ncc5cc(F)ccc45)c3)cc2C(F)(F)F)CC1,1.03,2.46,–,–,–,–
O=C(NCC#CCO)C(F)(F)F,–,–,–,–,> 100,TGI (RXF-631 renal): > 100 µM; TGI (XF 498 CNS): > 100 µM
Cc1c(Cl)ccc2c1NC(=O)C2(O)C1Cc2ccccc2C1=O (stereo not given),–,–,> 100,> 100,> 100,–
O=C(/C=C\Sc1nccc(C(F)(F)F)n1)c1ccc(Br)cc1,20.2,52.7,–,–,–,–
O=C(O)CC1(C(=O)O)CCCCC1,–,> 100,–,–,–,TGI (MDA-N): > 100 µM
COc1ccccc1NC(=O)C1=C(C)NC(C)=C(C(=O)Nc2ccccc2OC)C1c1ccccc1OC,–,–,> 100,> 100,> 100,TGI (RXF-631 renal): > 100 µM
O=C(Nc1ccc(Br)c(Cl)c1)c1cc(F)ccc1O,1.04,> 15.6,–,–,–,–
CCCC(=O)NNc1[nH]c(-c2ccc(OC)cc2)cc1C(=O)OCC,19.2,47.4,–,–,–,–
Cc1ccc2sc3c(NCCCNCCO)nc4ccccc4c3c(=O)c2c1,1.78,3.51,–,–,–,–
CC1C(=O)N(C)C2(CO)C(=O)O[C@H](C)C12O (stereo not given in full),–,–,> 100,–,> 100,–
CC/C(=C(\CC)c1ccc(OCCN(CC)CC)cc1)c1ccc(OCCN(CC)CC)cc1,4.89,17.9,–,–,–,–
